Patent US7566737B2 (Genfit, priority 2002, dated 2009)

Legend:
C57Black/6 mice = assay: Prophylactic neuroprotection, cerebral ischemia-reperfusion model (middle cerebral artery occlusion); type: in vivo, mouse; details: gavage 200 mg/kg/day for 14 days before occlusion; 60 minutes occlusion, 24 hours reperfusion; untreated 37
Experimental: C57 black/6 mice (wild-type) were used for this experiment. Animals were maintained on a 12 hour light-dark cycle at a temperature of 20° C.±3° C. Water and food were available ad libitum. Food intake and weight gain were recorded all along the experiment. The inventive compounds (200 mg/kg/day) or the vehicle (0.5% carboxycellulose (CMC)) were administered to the animals by gavage, for 14 days before ischemia induction in the middle cerebral artery.
Animals were anesthetized by intraperitoneal injection of 300 mg/kg chloral hydrate. A rectal probe was inserted and body temperature was maintained at 37° C.±0.5° C. Blood pressure was monitored throughout the experiment. Under a surgical microscope, the right carotid artery was exposed by a median incision in the neck. […]
(§1) Twenty-four hours after reperfusion, animals previously treated or not with the compounds were euthanized by pentobarbital overdose. […] Areas were measured and the volume of the infarct and the two hemispheres was calculated by the following formula: (corrected infarct volume=infarct volume−(volume of right hemisphere−volume of left hemisphere)) to compensate for cerebral oedema. […]

C57 black/6 mice = assay: Acute neuroprotection, cerebral ischemia-reperfusion model (middle cerebral artery occlusion); type: in vivo, mouse; details: 200 mg/kg/day for 72 hours after occlusion; untreated 41
Experimental: Animals such as those described previously were used for this experiment. Animals were anesthetized by intraperitoneal injection of 300 mg/kg chloral hydrate. A rectal probe was inserted and body temperature was maintained at 37° C.±0.5° C. Blood pressure was monitored throughout the experiment. Under a surgical microscope, the right carotid artery was exposed by a median incision in the neck. The pterygopalatine artery was ligated at its origin and an arteriotomy was fashioned in the external carotid artery so as to insert a nylon monofilament, which was gently advanced to the common carotid artery and then into the internal carotid artery so as to occlude the origin of the middle cerebral artery. The filament was withdrawn one hour later to allow reperfusion.
Animals first subjected to ischemia-reperfusion were treated with the inventive compounds by the oral or systemic route one or more times after reperfusion.
as §1, with “Seventy-two” for “Twenty-four”, “overdose. Brains were rapidly frozen and sliced. Sections were stained with cresyl violet.” for “overdose.”

human PPARα = molecular target: T1, human PPARα (Homo sapiens, UniProt Q07869); assay: PPARα/Gal4 transactivation system; type: cell-based; details: PPAR/Gal4 transactivation system
T1 construct: expressed in transfected cells; host or cells: RK13 or COS-7
T1 sequence (Q07869 239-466 limits assumed): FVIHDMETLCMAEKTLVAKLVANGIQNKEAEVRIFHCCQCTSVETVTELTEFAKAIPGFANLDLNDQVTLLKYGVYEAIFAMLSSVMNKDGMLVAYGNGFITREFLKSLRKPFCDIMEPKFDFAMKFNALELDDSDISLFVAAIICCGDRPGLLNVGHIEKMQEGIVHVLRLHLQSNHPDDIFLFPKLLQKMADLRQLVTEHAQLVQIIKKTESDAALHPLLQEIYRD
Experimental: (§2) PPAR activation was tested in vitro in RK13 or COS-7 fibroblast cell lines by measuring the transcriptional activity of chimeras composed of the DNA binding domain of the yeast Gal4 transcription factor and the ligand binding domain of the different PPARs. These latter results were then confirmed in cell lines according to the following protocols.
(§3) Culture protocols: RK13 were from ECACC (Porton Down, UK) and were grown in DMEM medium supplemented with 10% (V/V) fetal calf serum, 100 U/ml penicillin (Gibco, Paisley, UK) and 2 mM L-glutamine (Gibco, Paisley, UK). COS-7 cells were from ATCC and were grown in DMEM medium supplemented with 10% (V/V) fetal calf serum, 1% penicillin/streptomycine (Biochrom, AG), 1% of amino acids (Gibco) and 1% sodium pyruvate (Gibco).
(§4) The culture medium was changed every two days. Cells were kept at 37° C. in a humidified 95% air/5% CO2 atmosphere.
(§5) Description of plasmids used for transfection: The plasmids Gal4(RE)_TkpGL3, pGal4-hPPARα, pGal4-hPPARγ, pGal4-hPPARδ and pGal4-φ have been described in the literature (Raspe E et al., 1999). The pGal4-hPPARα, pGal4-hPPARγ and pGal4-hPPARδ constructs were obtained by cloning into the pGal4-φ vector PCR-amplified DNA fragments corresponding to the DEF domains of the human PPARs nuclear receptors.
(§6) Transfection of RK13: RK13 cells were seeded in 24-well culture dishes at 5×10^4 cells/well and transfected for 2 hours with the reporter plasmid Gal4(RE)_TkpGL3 (50 ng/well), the expression vectors pGal4-φ, pGal4-hPPARα, pGal4-hPPARγ and pGal-hPPARδ (100 ng/well) and the transfection efficiency control vector pRL-CMV (1 ng/well) according to the previously described protocol (Raspe E, Madsen L, Lefebvre A M, Leitersdorf I, Gelman L, Peinado-Onsurbe J, Dallongeville J, Fruchart J C, Berge R and Staels B, 1999), then incubated for 36 hours with the test compounds. RK13 cells were incubated with the different compounds at concentrations of 10, 30 and 100 μM or 1, 10 and 100 μM for 24 hours. At the end of the experiment, the cells were lysed (Gibco, Paisley, UK) and luciferase activity was determined with a Dual-Luciferase™ Reporter Assay System kit (Promega, Madison, Wis., USA) according to the supplier's instructions. The protein content of the cell extracts was then measured with the Bio-Rad Protein Assay (Bio-Rad, Munich, Germany) as directed by the supplier.
(§7) Transfection of COS7: Cells in suspension are transfected, in the presence of 10% (V/V) fetal calf serum, with 150 ng of DNA per well with a pGal4-PPAR/Gal4(RE)_TkpGL3 ratio of 1/10. Cells are then seeded in 96 well plates (4×10^4 cells/well) and incubated for 24 hours at 37° C. Activation with compounds is performed on 24 hours at 37° C. in culture medium without serum. At the end of the activation period, cells are lysed and luciferase activity is determined, using the Steady Glow Luciferase Kit (Promega), according to the supplier's instructions.

human PPARγ = molecular target: T2, human PPARγ (Homo sapiens, UniProt P37231); assay: PPARγ/Gal4 transactivation system; type: cell-based; details: PPAR/Gal4 transactivation system
T2 construct: expressed in transfected cells; host or cells: RK13 or COS-7
T2 sequence (P37231 238-503 limits assumed): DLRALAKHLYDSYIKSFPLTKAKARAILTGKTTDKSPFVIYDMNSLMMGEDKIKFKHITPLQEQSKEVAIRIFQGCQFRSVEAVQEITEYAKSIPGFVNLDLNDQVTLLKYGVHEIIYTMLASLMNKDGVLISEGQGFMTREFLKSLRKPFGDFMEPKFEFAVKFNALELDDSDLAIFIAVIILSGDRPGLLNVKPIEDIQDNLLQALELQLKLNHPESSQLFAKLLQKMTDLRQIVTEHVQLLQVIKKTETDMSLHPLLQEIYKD
Experimental: as §2, §3, §4, §5, §6, §7

HaCat cells = assay: Antioxidant properties on cell cultures (carboxy-H2DCFDA fluorescence, AAPH stress), keratinocytes; type: cell-based, human; details: 25 μM for 24 h, AAPH 750 μM
Experimental: (§8) The reduction in the intensity of the emitted fluorescence signal was determined in cells treated with the compounds in the following manner.
(§9) Prior to stress the cells with an oxidative agent such as AAPH (CAS number 2997-92-4), cells are incubated with compounds of interest at 25 μM for 24 h. Then the culture medium is discarded and cells are rinsed two times with PBS. Cells are then incubated 30 min at 37° C. with a cell-permeant indicator for reactive oxygen species that is nonfluorescent until the acetate groups are removed by intracellular esterases and oxidation occurs within the cell 5-(and-6)-carboxy-2′,7′-dichlorodihydrofluorescein diacetate (carboxy-H2DCFDA). The probes are prepared in PBS and incubated at the final concentration of 25 μM. After the incubation with the probe, cells are rinsed and incubated another 30 min with the oxidative solution containing AAPH at 750 μM in culture medium without phenol red and serum.
(§10) The fluorescence is then measured with a fluorimeter with the following wavelength, […].
(§11) Two different cell types have been tested with the inventive compounds. Human normal primary fibroblasts and HaCat cells which are a human keratinocyte cell line.

[1] = system: Human normal primary fibroblasts; assay: Antioxidant properties on cell cultures (carboxy-H2DCFDA fluorescence, AAPH stress), fibroblasts; type: cell-based; details: 25 μM for 24 h, AAPH 750 μM
Experimental: as §8, §9, §10, §11

[2] = system: hApoE2 Knock-in transgenic mice; assay: Effects on triglycerides and cholesterol metabolism in vivo; design: species or system mouse
Experimental: Treatment of animals: hApoE2 knock-in transgenic mice were kept on a 12-hour light/dark cycle at a constant temperature of 20±3° C. After a 1 week acclimation, mice were separated in groups of 6 animals selected such that the distribution of their body weight and plasmatic lipid levels determined before the experiment were uniform. The test compounds were suspended in carboxymethylcellulose and administered by intragastric gavage at the indicated doses, once a day for 7 or 8 days. Animals had access to food and water ad libitum. At the end of the experiment the animals were weighed and sacrificed under anesthesia. Blood was collected on EDTA. Plasma was prepared by centrifugation at 3000 rpm for 20 minutes. Organs were harvested, frozen in liquid nitrogen and stored at −80° C. for subsequent analysis.
Measurement of serum lipids: Serum lipid concentrations (total cholesterol and triglycerides) were determined by a colorimetric assay (Boehringer, Mannheim, Germany) according to the supplier's instructions.

[3] = system: C57BLKS-m Lepr^db transgenic mice; assay: Antidiabetic effect on insulin and glucose; type: in vivo, mouse; details: 0.1 to 30 mg/Kg/day for 21 days
Experimental: Genetically modified C57BLKS-m Lepr^db mice were used to asses antidiabetic effect of the inventive compounds. Mice were randomized according to their plasma lipid, glucose and insulin contents. Treatments were administered once daily by gavage (10 ml/kg) for the duration of the treatment. For oral administrations, the drugs were suspended in CMC 1% or CMC 1%+Tween 80 0.1%. The plasma glucose was measured using a kit reagent from Biomerieux (France). The plasma insulin was measured using a solid phase two-site enzyme immunoassay from Crystal Chem Inc. (USA). The results are exemplified in FIGS. 5-1 to 5-4 which illustrate the activity of inventive compounds 29 and 62 on glucose and insulin.

human PPARδ = molecular target: T3, human PPARδ (Homo sapiens, UniProt Q03181); assay: PPARδ/Gal4 transactivation system; type: cell-based; details: PPAR/Gal4 transactivation system
T3 construct: expressed in transfected cells; host or cells: RK13 or COS-7
T3 sequence (Q03181 211-439 limits assumed): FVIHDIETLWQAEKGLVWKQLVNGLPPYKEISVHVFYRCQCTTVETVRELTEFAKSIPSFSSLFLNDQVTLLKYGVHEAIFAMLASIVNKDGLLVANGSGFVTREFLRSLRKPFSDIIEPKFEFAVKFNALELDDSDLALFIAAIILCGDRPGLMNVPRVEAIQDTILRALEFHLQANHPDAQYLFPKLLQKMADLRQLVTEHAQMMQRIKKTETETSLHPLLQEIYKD
Experimental: as §2, §3, §4, §5, §6
Transfection of COS7: Cells in suspension are transfected, in the presence of 10% (V/V) fetal calf serum, with 150 ng of DNA per well with a pGal4-PPAR/Gal4(RE)_TkpGL3 ratio of 1/10. […] At the end of the activation period, cells are lysed and luciferase activity is determined, using the Steady Glow Luciferase Kit (Promega), according to the supplier's instructions.

[4] = 1, 3, 10 and 30 mg/kg/day for 14 days

concentration at which maximal activity is observed (human PPARα) | concentration at which maximal activity is observed (human PPARγ) | concentration at which maximal activity is observed (human PPARδ) | Structure (SMILES) | infarct volume (C57Black/6 mice) | total corrected infarct volume (C57 black/6 mice) | antioxidant properties on cell cultures (in words) (HaCat cells) | antioxidant properties on cell cultures (in words) [1] | plasma cholesterol ([2]; 50 mg/kg/day for 7 or 8 days, FIGS. 4-13, 4-15, 4-17, 4-19) | plasma triglycerides ([2]; 50 mg/kg/day for 7 or 8 days, FIGS. 4-14, 4-16, 4-18, 4-20) | plasma cholesterol [2, 4] | plasma triglycerides [2, 4] | plasma glucose level [3] | plasma insulin level [3]
– | – | – | Cc1cc(/C=C/C(=O)c2ccc(Cl)cc2)cc(C)c1OC(C)(C)C(=O)OC(C)C [Compound 15, 1-[4-chlorophenyl]-3-[3,5-dimethyl-4-isopropyloxycarbonyldimethylmethyloxyphenyl]prop-2-en-1-one] | 32 mm^3 | 29 mm^3 | – | – | – | – | – | – | – | –
0.3 µM | 10 µM | 3 µM | Cc1cc(/C=C/C(=O)c2ccc(OC(F)(F)F)cc2)cc(C)c1OC(C)(C)C(=O)O [Compound 62] | – | – | antioxidant properties | antioxidant properties | decrease | decrease | decrease | decrease | decrease | decrease
– | – | – | CC(C)OC(=O)C(C)(C)Oc1ccc(/C=C/C(=O)c2ccccc2O)cc1 [Compound 42] | 24 mm^3 | 29 mm^3 | – | – | – | – | – | – | – | –
